Experimental data from ChEMBL document CHEMBL4002628, “Benzenesulphonamide inhibitors of the cytolytic protein perforin” (Bioorg Med Chem Lett, 2017).
Calls of active or inactive are those of the source. No cut-off for these calls is given here.

How the values were obtained:
[1] = biological target: T1, Perforin-1 (Homo sapiens) (UniProt P14222); experiment: Inhibition of recombinant perforin (unknown origin) assessed as decrease in lysis of 51Cr-labelled human Jurkat cells by measuring 51Cr release at 20 uM preincubated for 30 mins followed by cell line addition measured after 4 hrs in presence of 10% mouse serum by gamma counting method relative to control
T1 sequence (whole entry): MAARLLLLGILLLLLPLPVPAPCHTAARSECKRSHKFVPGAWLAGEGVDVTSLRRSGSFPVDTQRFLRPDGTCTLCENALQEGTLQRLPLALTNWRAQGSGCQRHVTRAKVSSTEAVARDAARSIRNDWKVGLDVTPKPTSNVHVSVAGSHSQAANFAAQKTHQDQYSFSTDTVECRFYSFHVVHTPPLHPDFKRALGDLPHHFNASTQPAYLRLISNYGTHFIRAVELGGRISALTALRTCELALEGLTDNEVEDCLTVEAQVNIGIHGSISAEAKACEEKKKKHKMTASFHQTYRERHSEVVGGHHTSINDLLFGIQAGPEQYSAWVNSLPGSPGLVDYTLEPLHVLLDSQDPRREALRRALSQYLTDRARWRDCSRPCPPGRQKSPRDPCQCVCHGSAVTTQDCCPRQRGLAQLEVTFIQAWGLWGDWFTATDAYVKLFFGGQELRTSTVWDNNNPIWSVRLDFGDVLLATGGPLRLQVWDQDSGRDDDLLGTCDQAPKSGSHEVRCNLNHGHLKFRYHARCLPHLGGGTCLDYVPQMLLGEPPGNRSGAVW

[2] = Inhibition of N-terminal His-tagged recombinant human p85alpha expressed in baculovirus infected insect Sf21 cells/recombinant wild type mouse p110alpha using phosphatidylinositol as substrate in presence of [33P]-ATP

inhibition [1]	Compound	IC50 [2] [µM]
Active	O=C1NCc2ccc(-c3ccc(-c4cncc(NS(=O)(=O)c5ccc(F)cc5F)c4)s3)cc21	–
Active	CN1Cc2cc(-c3ccc(-c4cncc(NS(=O)(=O)c5ccc(F)cc5F)c4)s3)ccc2C1=O	> 6.25
Active	O=C1Cc2cc(-c3ccc(-c4cncc(NS(=O)(=O)c5ccc(F)cc5F)c4)s3)ccc2N1	–
Active	O=C1NCc2cc(-c3ccc(-c4cncc(NS(=O)(=O)c5ccc(F)cc5F)c4)s3)ccc21	–
